The values below come from patent US20130217664A1, “NOVEL COMPOUNDS USEFUL FOR THE TREATMENT OF DEGENERATIVE AND INFLAMMATORY DISEASES” (priority 2012, published 2013).

The target of experiment [1] is T1, human JAK3 (Homo sapiens, UniProt P52333).
T1 construct: catalytic domain (amino acids 781-1124; catalog number PV3855); purchased Invitrogen PV3855
The experiment can be described thus: JAK3 inhibition assay. Type of experiment: biochemical. The conditions noted are these: recombinant human JAK3 catalytic domain; polyGT substrate. In a few lines:
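Radiometric kinase assay: 0.5 ng JAK3 with 2.5 μg polyGT in Tris pH 7.5/MgCl2 buffer, 1 μM ATP plus 0.25 μCi 33P-γ-ATP, 1% DMSO, 45 min at 30 °C, stopped with phosphoric acid.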

The target in experiment [2] is T2, human TYK2 (Homo sapiens, UniProt P29597).
T2 construct: catalytic domain (amino acids 871-1187; catalog number 08-147); purchased Carna Biosciences 08-147
T2 sequence (P29597 871-1187): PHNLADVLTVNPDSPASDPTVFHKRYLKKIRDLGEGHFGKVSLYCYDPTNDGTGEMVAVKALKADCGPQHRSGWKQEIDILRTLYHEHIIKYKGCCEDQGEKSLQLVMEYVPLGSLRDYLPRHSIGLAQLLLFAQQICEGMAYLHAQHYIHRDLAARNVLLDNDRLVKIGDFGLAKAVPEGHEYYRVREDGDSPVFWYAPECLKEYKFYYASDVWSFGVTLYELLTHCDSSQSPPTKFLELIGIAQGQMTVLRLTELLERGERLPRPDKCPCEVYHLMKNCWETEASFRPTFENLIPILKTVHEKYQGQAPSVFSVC
The experiment can be described thus: TYK2 inhibition assay. It counts as biochemical. The conditions noted are these: recombinant human TYK2 catalytic domain, polyGT substrate. In a few lines:
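Radiometric kinase reaction run 90 min at 30 °C, stopped with phosphoric acid, washed and scintillation-counted.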

Experiment [3] concerns BA/F3 cell line. The experiment in a line: BA/F3 viability assay. The conditions noted are these: Mus musculus, BaF3, 48 h, read-out: BA/F3 IC50.
Experiment [4] addresses T3, human JAK2 (Homo sapiens, UniProt O60674).
T3 construct: catalytic domain (amino acids 808-1132; catalog number PV4210); GST; purchased Invitrogen PV4210
The experiment can be described thus: JAK2 inhibition assay (polyGT substrate / Ulight-JAK1 peptide). Type of experiment: biochemical. The conditions noted are these: recombinant human JAK2 catalytic domain; polyGT or Ulight-JAK1 peptide assay. The gist of the method:
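Two JAK2 formats: a ^33P-ATP polyGT assay (1 μM cold ATP, 90 min, 30° C., cpm read-out) and a Ulight-JAK1 peptide assay read by Europium-anti-phosphotyrosine fluorescence after 60 min at room temperature.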

For experiment [5], the system named is CTLL-2 cell line. The experiment can be described thus: CTLL2 viability assay. It counts as cell-based. The conditions noted are these: Mus musculus, IL-2 dependent CTLL2 viability, 24 h, ATP-lite. From the text:
The protocol describes the methods to analyse the activity of compounds on their ability to sustain the IL2-dependent viability of CTLL2.
Final DMSO concentration was 0.1%.

The target in experiment [6] is T4, human JAK1 (Homo sapiens, UniProt P23458).
T4 construct: catalytic domain, amino acids 866-1154; catalog number PV4774; purchased Invitrogen PV4774
T4 sequence (P23458 866-1154): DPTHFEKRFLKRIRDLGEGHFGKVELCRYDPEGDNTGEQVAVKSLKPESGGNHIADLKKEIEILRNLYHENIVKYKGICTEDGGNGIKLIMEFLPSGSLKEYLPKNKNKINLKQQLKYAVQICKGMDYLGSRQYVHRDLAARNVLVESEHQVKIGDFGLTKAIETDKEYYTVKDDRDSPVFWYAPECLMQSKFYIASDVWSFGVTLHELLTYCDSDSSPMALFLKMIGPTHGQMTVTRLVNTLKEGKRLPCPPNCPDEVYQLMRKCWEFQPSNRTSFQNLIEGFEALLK
The experiment in a line: JAK1 inhibition assay (polyGT substrate / Ulight-JAK1 peptide). The conditions noted are these: recombinant human JAK1 catalytic domain; polyGT or Ulight-JAK1 peptide assay. It counts as biochemical. The gist of the method: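 Signal scaled between vehicle and 10 μM staurosporine. Radiometric polyGT reactions ran 45 min at 30 °C, counted after phosphoric-acid stop. Ulight peptide reactions ran 60 min at room temperature, fluorescence read after adding Eu-PT66 detection mix with EDTA.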

A value given as a limit tells only on which side of the number the result lay.

T1 sequence (P52333 781-1124): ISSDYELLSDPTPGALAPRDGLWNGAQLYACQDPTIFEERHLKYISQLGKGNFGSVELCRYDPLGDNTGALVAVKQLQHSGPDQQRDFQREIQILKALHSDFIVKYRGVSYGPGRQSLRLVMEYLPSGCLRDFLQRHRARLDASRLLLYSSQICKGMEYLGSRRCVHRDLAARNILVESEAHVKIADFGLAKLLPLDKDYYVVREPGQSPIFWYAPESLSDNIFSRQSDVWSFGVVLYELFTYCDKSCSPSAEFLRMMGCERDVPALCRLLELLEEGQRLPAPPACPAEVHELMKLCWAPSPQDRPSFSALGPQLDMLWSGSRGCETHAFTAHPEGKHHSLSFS
T3 sequence (O60674 808-1132): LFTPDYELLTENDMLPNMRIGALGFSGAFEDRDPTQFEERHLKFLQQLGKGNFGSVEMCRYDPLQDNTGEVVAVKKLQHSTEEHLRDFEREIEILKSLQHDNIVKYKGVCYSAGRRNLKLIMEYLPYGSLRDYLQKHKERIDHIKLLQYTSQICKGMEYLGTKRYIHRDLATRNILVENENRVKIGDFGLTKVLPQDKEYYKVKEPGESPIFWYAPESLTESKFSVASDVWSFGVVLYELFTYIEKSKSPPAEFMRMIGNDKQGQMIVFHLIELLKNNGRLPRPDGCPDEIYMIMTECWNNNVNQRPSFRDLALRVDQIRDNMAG

Consider `CCc1cc(C2CN(C(=O)C(F)(F)F)C2)ccc1N(C)c1cc2c(cn1)ncn2C` [Compound 347, 1-(3-{3-Ethyl-4-[methyl-(1-methyl-1H-imidazo[4,5-c]pyridin-6-yl)-amino]-phenyl}-azetidin-1-yl)-2,2,2-trifluoro-ethanone], for which the IC50 was 101 to 500 nM in experiment [1]; 101 to 500 nM in experiment [2]; over 5000 nM in experiment [3]; 101 to 500 nM in experiment [4]; over 1000 nM in experiment [5]; 0.01 to 100 nM in experiment [6].
For `CCc1cc(C2CN(S(=O)(=O)CCOC)C2)ccc1N(C)c1cc2c(cn1)ncn2C` [Compound 349, {2-Ethyl-4-[1-(2-methoxy-ethanesulfonyl)-azetidin-3-yl]-phenyl}-methyl-(1-methyl-1H-imidazo[4,5-c]pyridin-6-yl)-amine], the IC50 in experiment [1] was 101 to 500 nM; in experiment [2] it was 0.01 to 100 nM; in experiment [3], 1000 to 5000 nM; in experiment [4] it was 0.01 to 100 nM; in experiment [5] it was over 1000 nM; in experiment [6], 0.01 to 100 nM.
For `CCc1cc(C2CN(C(=O)COC)C2)ccc1N(C)c1cc2c(cn1)ncn2C` [Compound 350, 1-(3-{3-Ethyl-4-[methyl-(1-methyl-1H-imidazo[4,5-c]pyridin-6-yl)-amino]-phenyl}-azetidin-1-yl)-2-methoxy-ethanone], the IC50 in experiment [1] was over 1000 nM; in experiment [2] it was 101 to 500 nM; in experiment [3], over 5000 nM; in experiment [4] it was 101 to 500 nM; in experiment [5] it was over 1000 nM; in experiment [6] it was 0.01 to 100 nM.
Take `CCc1cc(C2CN(CC#N)C2)ccc1N(C)c1cc2c(cn1)ncn2C` [Compound 351, (3-{3-Ethyl-4-[methyl-(1-methyl-1H-imidazo[4,5-c]pyridin-6-yl)-amino]-phenyl}-azetidin-1-yl)-acetonitrile]: the IC50 in experiment [1] is 101 to 500 nM; in experiment [2], 101 to 500 nM; in experiment [3], over 5000 nM; in experiment [4], 0.01 to 100 nM; in experiment [5], over 1000 nM; in experiment [6], 0.01 to 100 nM.
As for `CCc1cc(C2CN(S(=O)(=O)CC(F)(F)F)C2)ccc1N(C)c1cc2c(cn1)ncn2C` [Compound 352, {2-Ethyl-4-[1-(2,2,2-trifluoro-ethanesulfonyl)-azetidin-3-yl]-phenyl}-methyl-(1-methyl-1H-imidazo[4,5-c]pyridin-6-yl)-amine], the IC50 in experiment [1] was 0.01 to 100 nM; in experiment [2], 0.01 to 100 nM; in experiment [3], over 5000 nM; in experiment [4] it was 0.01 to 100 nM; in experiment [5], over 1000 nM; in experiment [6], 0.01 to 100 nM.
In the case of `CCc1cc(C2CN(S(=O)(=O)CC#N)C2)ccc1N(C)c1cc2c(cn1)ncn2C` [Compound 353, (3-{3-Ethyl-4-[methyl-(1-methyl-1H-imidazo[4,5-c]pyridin-6-yl)-amino]-phenyl}-azetidine-1-sulfonyl)-acetonitrile], the IC50 in experiment [1] was in the range of 0.01 to 100 nM; in experiment [2], 0.01 to 100 nM; in experiment [3], 1000 to 5000 nM; in experiment [4], 0.01 to 100 nM; in experiment [5], 501 to 1000 nM; in experiment [6] it was 0.01 to 100 nM.
With `CCc1cc(C2CN(S(=O)(=O)C(F)F)C2)ccc1N(C)c1cc2c(cn1)ncn2C` [Compound 354, {4-[1-(Difluoro-methanesulfonyl)-azetidin-3-yl]-2-ethyl-phenyl}-methyl-(1-methyl-1H-imidazo[4,5-c]pyridin-6-yl)-amine], the IC50 in experiment [1] fell in the range of 0.01 to 100 nM; in experiment [2], 0.01 to 100 nM; in experiment [3], 1000 to 5000 nM; in experiment [4], 0.01 to 100 nM; in experiment [5], 501 to 1000 nM; in experiment [6], 0.01 to 100 nM.
Consider `CCc1cc(CN(C)S(C)(=O)=O)cc(F)c1N(C)c1cc2c(cn1)ncn2C` [Compound 356, N-{3-Ethyl-5-fluoro-4-[methyl-(1-methyl-M-imidazo[4,5-c]pyridin-6-yl)-amino]-benzyl}-N-methyl-methanesulfonamide], for which the IC50 was 0.01 to 100 nM in experiment [1]; 0.01 to 100 nM in experiment [2]; 1000 to 5000 nM in experiment [3]; 0.01 to 100 nM in experiment [4]; 501 to 1000 nM in experiment [5]; 0.01 to 100 nM in experiment [6].
